# Reference: PMC9403976, “Elucidating the path to Plasmodium prolyl-tRNA synthetase inhibitors that overcome halofuginone resistance” (Nature Communications, 2022)
# “And” between values parts separate entries of the source, which are not always exact repeats. Identical values can stand only once.
# Tests used:
# [1] = target: HsProRS (Homo sapiens, UniProt P07814); experiment: TR-FRET ligand displacement assay with tracer MAT379 (CoraFluor-1-Halo and anti-His6 antibody formats); type: binding; set-up: made in house; host or cells: E. coli SoluBL-21; settings: for TR-FRET dose-response, normalized signal (SI Fig 11): individual replicates; for TR-FRET dose-response, normalized signal (SI Fig 11) / normalized TR-FRET ligand displacement signal, dose-response replicates (SI Fig 6) / normalized TR-FRET signal (dose-response replicates): listed as NCP26 (3); for normalized TR-FRET signal (dose-response replicates): SI Fig 15
# [2] = tested on: HFGR-I P. falciparum (elevated proline homeostasis and PfcProRS^L482H); experiment: P. falciparum ABS growth assay, SYBR Green, 72 h, HFGR-I parasites; type: cell-based, Plasmodium falciparum; settings: for parasite growth, replicate wells (Fig 1b): HFGR-I
# In short: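 Dd2-derived P. falciparum lines (HFGR-I, halofuginone-induced) at 1% parasitemia and 1% hematocrit in RPMI + 0.5% Albumax were exposed to compounds in triplicate dose-response for 72 h. Growth was read as SYBR Green 1 fluorescence, with 10 μM dihydroartemisinin as kill control and compound-free wells as growth control.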
# [3] = tested on: P. falciparum Dd2-2D4; experiment: P. falciparum asexual blood stage (ABS) growth assay, SYBR Green, 72 h, wild-type parasites; type: cell-based, Plasmodium falciparum; settings: Dd2-2D4
# [4] = Log[inhibitor] (M) -6.806, listed as NCP26 (3)
# Chain of HsProRS (P07814 996-1512): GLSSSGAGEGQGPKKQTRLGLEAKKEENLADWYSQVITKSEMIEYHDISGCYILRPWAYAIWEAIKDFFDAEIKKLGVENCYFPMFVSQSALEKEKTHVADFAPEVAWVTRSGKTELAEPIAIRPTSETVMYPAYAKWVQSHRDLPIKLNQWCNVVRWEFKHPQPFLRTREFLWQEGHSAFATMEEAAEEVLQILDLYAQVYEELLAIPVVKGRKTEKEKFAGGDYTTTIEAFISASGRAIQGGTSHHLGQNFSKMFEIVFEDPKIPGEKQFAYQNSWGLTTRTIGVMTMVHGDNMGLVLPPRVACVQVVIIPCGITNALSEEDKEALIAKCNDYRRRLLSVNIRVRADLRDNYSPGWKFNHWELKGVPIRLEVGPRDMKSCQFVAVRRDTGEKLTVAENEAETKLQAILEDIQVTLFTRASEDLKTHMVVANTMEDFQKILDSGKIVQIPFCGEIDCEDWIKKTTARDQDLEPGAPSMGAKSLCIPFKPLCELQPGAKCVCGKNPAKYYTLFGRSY
smiles,measurement,setting,value
O=C(NC1Cc2ccccc2C1)c1nccnc1NC(=O)N1CCCCC1 [NCP26],fold increased affinity in the presence of proline,[1]; 100 μM proline vs no substrates,> 750 fold
same,Kd,"[1]; HsProRS (KD [nM]) + ATP, 500 μM ATP, 250 nM MAT379",678 nM
same,Kd,"[1]; HsProRS (KD [nM]) −, absence of substrates, 250 nM MAT379",271 nM
same,Kd,"[1]; HsProRS - best Kd, SI Fig 16a, values on -log scale",0.351 nM
same,"TR-FRET dose-response, normalized signal (SI Fig 11)",[1]; Log[inhibitor] (M) -5.000,3.90E-02 and 5.46E-02 and 7.26E-02
same,"normalized TR-FRET ligand displacement signal, dose-response replicates (SI Fig 6)",[1]; Log[inhibitor] (M) -5.000,-7.74E-03 and 7.74E-03
same,"TR-FRET dose-response, normalized signal (SI Fig 11)",[1]; Log[inhibitor] (M) -5.301,8.66E-02 (2×) and 6.05E-02
same,"normalized TR-FRET ligand displacement signal, dose-response replicates (SI Fig 6)",[1]; Log[inhibitor] (M) -5.301,1.56E-02 and 1.09E-02
same,"TR-FRET dose-response, normalized signal (SI Fig 11)",[1]; Log[inhibitor] (M) -5.601,1.54E-01 and 1.44E-01 and 1.56E-01
same,"normalized TR-FRET ligand displacement signal, dose-response replicates (SI Fig 6)",[1]; Log[inhibitor] (M) -5.601,1.19E-01 and 1.01E-01
same,"normalized TR-FRET ligand displacement signal, dose-response replicates (SI Fig 6)",[1]; Log[inhibitor] (M) -5.902,2.03E-01 and 2.10E-01
same,"TR-FRET dose-response, normalized signal (SI Fig 11)",[1]; Log[inhibitor] (M) -5.904,2.33E-01 and 2.21E-01 and 2.09E-01
same,"normalized TR-FRET ligand displacement signal, dose-response replicates (SI Fig 6)",[1]; Log[inhibitor] (M) -6.203,4.13E-01 and 3.59E-01
same,"TR-FRET dose-response, normalized signal (SI Fig 11)",[1]; Log[inhibitor] (M) -6.208,3.61E-01 and 2.97E-01 and 3.35E-01
same,"TR-FRET dose-response, normalized signal (SI Fig 11)",[1]; Log[inhibitor] (M) -6.509,4.65E-01 and 4.29E-01 and 4.89E-01
same,"normalized TR-FRET ligand displacement signal, dose-response replicates (SI Fig 6)",[1]; Log[inhibitor] (M) -6.513,6.17E-01 and 6.51E-01
same,"TR-FRET dose-response, normalized signal (SI Fig 11)",[1]; Log[inhibitor] (M) -6.796,6.56E-01 and 6.91E-01 and 6.47E-01
same,"normalized TR-FRET ligand displacement signal, dose-response replicates (SI Fig 6)",[1]; Log[inhibitor] (M) -6.796,7.87E-01 and 8.56E-01
same,"TR-FRET dose-response, normalized signal (SI Fig 11)",[1]; Log[inhibitor] (M) -7.108,8.29E-01 and 7.76E-01 and 7.86E-01
same,"normalized TR-FRET ligand displacement signal, dose-response replicates (SI Fig 6)",[1]; Log[inhibitor] (M) -7.108,8.95E-01 and 9.07E-01
same,"normalized TR-FRET ligand displacement signal, dose-response replicates (SI Fig 6)",[1]; Log[inhibitor] (M) -7.405,9.57E-01 and 8.55E-01
same,"TR-FRET dose-response, normalized signal (SI Fig 11)",[1]; Log[inhibitor] (M) -7.409,9.33E-01 and 8.84E-01 and 8.96E-01
same,"TR-FRET dose-response, normalized signal (SI Fig 11)",[1]; Log[inhibitor] (M) -7.710,1.01E+00 and 8.77E-01 and 8.78E-01
same,"normalized TR-FRET ligand displacement signal, dose-response replicates (SI Fig 6)",[1]; Log[inhibitor] (M) -7.714,1.05E+00 and 9.22E-01
same,"TR-FRET dose-response, normalized signal (SI Fig 11)",[1]; Log[inhibitor] (M) -8.000,9.74E-01 and 9.83E-01 and 9.34E-01
same,"normalized TR-FRET ligand displacement signal, dose-response replicates (SI Fig 6)",[1]; Log[inhibitor] (M) -8.000,1.02E+00 and 1.00E+00
same,normalized TR-FRET signal (Fig 2j),[1]; Log[inhibitor] (M) -8.013,3.80E-01 and 4.41E-01 and 3.90E-01
same,"TR-FRET dose-response, normalized signal (SI Fig 11)",[1]; Log[inhibitor] (M) -8.301,1.04E+00 and 9.70E-01 and 9.69E-01
same,normalized TR-FRET signal (Fig 2j),[1]; Log[inhibitor] (M) -8.314,5.85E-01 and 7.34E-01 and 6.18E-01
same,"normalized TR-FRET ligand displacement signal, dose-response replicates (SI Fig 6)",[1]; Log[inhibitor] (M) -8.331,1.04E+00 and 1.00E+00
same,"normalized TR-FRET ligand displacement signal, dose-response replicates (SI Fig 6)",[1]; Log[inhibitor] (M) -8.574,1.00E+00 and 9.98E-01
same,"TR-FRET dose-response, normalized signal (SI Fig 11)",[1]; Log[inhibitor] (M) -8.602,1.02E+00 and 9.93E-01 and 9.50E-01
same,normalized TR-FRET signal (Fig 2j),[1]; Log[inhibitor] (M) -8.615,7.72E-01 and 8.28E-01 and 8.16E-01
same,normalized TR-FRET signal (Fig 2j),[1]; Log[inhibitor] (M) -8.916,9.01E-01 and 9.63E-01 and 9.82E-01
same,"TR-FRET dose-response, normalized signal (SI Fig 11)",[1]; Log[inhibitor] (M) -9.000,9.79E-01 and 9.82E-01 and 1.02E+00
same,normalized TR-FRET signal (Fig 2j),[1]; Log[inhibitor] (M) -9.217,9.20E-01 and 1.06E+00
same,"TR-FRET dose-response, normalized signal (SI Fig 11)",[1]; Log[inhibitor] (M) -9.301,1.04E+00 and 1.00E+00 and 9.65E-01
same,normalized TR-FRET signal (dose-response replicates),[1]; Log[inhibitor] (M) -4.99976,2.27E-01 and 3.58E-01 and 2.56E-01
same,normalized TR-FRET signal (dose-response replicates),[1]; Log[inhibitor] (M) -5.3009,5.51E-01 and 1.03E-01 and 3.27E-01
same,normalized TR-FRET signal (dose-response replicates),[1]; Log[inhibitor] (M) -5.60199,6.05E-01 and 4.05E-01 and 4.39E-01
same,normalized TR-FRET signal (dose-response replicates),[1]; Log[inhibitor] (M) -5.90248,4.42E-01 and 6.91E-01 and 6.09E-01
same,normalized TR-FRET signal (dose-response replicates),[1]; Log[inhibitor] (M) -6.20323,4.30E-01 and 8.03E-01 and 7.35E-01
same,normalized TR-FRET signal (dose-response replicates),[1]; Log[inhibitor] (M) -6.51347,8.28E-01 and 6.81E-01 and 6.14E-01
same,normalized TR-FRET signal (dose-response replicates),[1]; Log[inhibitor] (M) -6.79595,1.04E+00 and 6.14E-01 and 1.23E+00
same,normalized TR-FRET signal (dose-response replicates),[1]; Log[inhibitor] (M) -7.10794,8.29E-01 and 9.88E-01 and 1.04E+00
same,normalized TR-FRET signal (dose-response replicates),[1]; Log[inhibitor] (M) -7.40526,1.19E+00 and 8.56E-01 and 7.59E-01
same,normalized TR-FRET signal (dose-response replicates),[1]; Log[inhibitor] (M) -7.7137,9.63E-01 and 9.49E-01 and 1.37E+00
same,normalized TR-FRET signal (dose-response replicates),[1]; Log[inhibitor] (M) -8,8.45E-01 and 9.90E-01 and 8.83E-01
same,normalized TR-FRET signal (dose-response replicates),[1]; Log[inhibitor] (M) -8.331,9.93E-01 and 9.01E-01 and 8.86E-01
same,normalized TR-FRET signal (dose-response replicates),[1]; Log[inhibitor] (M) -8.57403,9.84E-01 and 9.89E-01 and 1.13E+00
same,normalized TR-FRET signal (dose-response replicates),[1]; Log[inhibitor] (M) -8.87506,9.25E-01 and 9.80E-01 and 7.66E-01
same,normalized TR-FRET signal (dose-response replicates),[1]; Log[inhibitor] (M) -9.17609,7.05E-01 and 1.05E+00 and 1.13E+00
same,"parasite growth, replicate wells (Fig 1b)",[2]; Log[inhibitor] (M) -4.699,0.00E+00
same,"parasite growth, replicate wells (Fig 1b)",[2]; Log[inhibitor] (M) -5.000,0.00E+00
same,"parasite growth, replicate wells (Fig 1b)",[2]; Log[inhibitor] (M) -5.301,0.00E+00
same,"parasite growth, replicate wells (Fig 1b)","[2]; Log[inhibitor] (M) -5.602, listed as NCP26 (3)",0.00E+00 and 1.00E+00 (2×)
same,"parasite growth, replicate wells (Fig 1b)",[2]; Log[inhibitor] (M) -5.903,0.00E+00
same,"parasite growth, replicate wells (Fig 1b)",[2]; Log[inhibitor] (M) -6.204,0.00E+00
same,"parasite growth, replicate wells (Fig 1b)",[2]; Log[inhibitor] (M) -6.505,1.00E+00
same,"parasite growth, replicate wells (Fig 1b)",[2]; [4],7.00E+00 (2×) and 6.00E+00
same,"parasite growth, replicate wells (Fig 1b)","[2]; Log[inhibitor] (M) -7.107, listed as NCP26 (3)",3.90E+01 and 3.70E+01 (2×)
same,"parasite growth, replicate wells (Fig 1b)","[2]; Log[inhibitor] (M) -7.408, listed as NCP26 (3)",9.90E+01 and 1.07E+02 and 1.00E+02
same,"parasite growth, replicate wells (Fig 1b)","[2]; Log[inhibitor] (M) -7.709, listed as NCP26 (3)",1.11E+02 (2×) and 1.00E+02
same,"parasite growth, replicate wells (Fig 1b)","[2]; Log[inhibitor] (M) -8.010, listed as NCP26 (3)",1.08E+02 and 1.07E+02 and 1.06E+02
same,"dose-response value, Replicates 1-3 (SI Fig 2f)",[2]; Log[inhibitor] (M) -4.699,0
same,"dose-response value, Replicates 1-3 (SI Fig 2f)",[2]; Log[inhibitor] (M) -5.000,0
same,"dose-response value, Replicates 1-3 (SI Fig 2f)",[2]; Log[inhibitor] (M) -5.301,0
same,"dose-response value, Replicates 1-3 (SI Fig 2f)",[2]; Log[inhibitor] (M) -5.903,0
same,"dose-response value, Replicates 1-3 (SI Fig 2f)",[2]; Log[inhibitor] (M) -6.204,0
same,"dose-response value, Replicates 1-3 (SI Fig 2f)",[2]; Log[inhibitor] (M) -6.505,1
same,"ABS growth dose-response, normalized signal (Replicates 1-3)",[3]; Log[inhibitor] (M) -4.699,0
same,"parasite growth, replicate wells (Fig 1b)",[3]; Log[inhibitor] (M) -4.699,0.00E+00
same,"ABS growth dose-response, normalized signal (Replicates 1-3)",[3]; Log[inhibitor] (M) -5.000,0
same,"parasite growth, replicate wells (Fig 1b)",[3]; Log[inhibitor] (M) -5.000,0.00E+00
same,"ABS growth dose-response, normalized signal (Replicates 1-3)",[3]; Log[inhibitor] (M) -5.301,0
same,"parasite growth, replicate wells (Fig 1b)",[3]; Log[inhibitor] (M) -5.301,0.00E+00
same,"ABS growth dose-response, normalized signal (Replicates 1-3)",[3]; Log[inhibitor] (M) -5.602,0
same,"parasite growth, replicate wells (Fig 1b)",[3]; Log[inhibitor] (M) -5.602,0.00E+00
same,"ABS growth dose-response, normalized signal (Replicates 1-3)",[3]; Log[inhibitor] (M) -5.903,0
same,"parasite growth, replicate wells (Fig 1b)",[3]; Log[inhibitor] (M) -5.903,0.00E+00
same,"ABS growth dose-response, normalized signal (Replicates 1-3)",[3]; Log[inhibitor] (M) -6.204,0
same,"parasite growth, replicate wells (Fig 1b)",[3]; Log[inhibitor] (M) -6.204,0.00E+00
same,"ABS growth dose-response, normalized signal (Replicates 1-3)",[3]; Log[inhibitor] (M) -6.505,0
same,"parasite growth, replicate wells (Fig 1b)",[3]; Log[inhibitor] (M) -6.505,0.00E+00
same,"parasite growth, replicate wells (Fig 1b)",[3]; [4],6.00E+00 (2×) and 5.00E+00
